Assay results reported in patent publication US20240423981A1, “TREATMENT OF HCM WITH PYRIMIDINEDIONE COMPOUNDS” (MyoKardia, Inc., priority 2017, published 2024).

Columns and labels:
healthy men = experiment: Study Compound 1-002: single ascending-dose (SAD) trial in healthy volunteers; assay type: in vivo, human
Description: (§1) Three clinical studies have investigated the safety and tolerability of Compound 1 to date; conduct of 2 studies has completed and 1 study is ongoing. A double-blind, placebo-controlled, single ascending-dose study (SAD) (Compound 1-002) was conducted in healthy men. Subjects received single doses ranging from 1 mg to 48 mg. Conduct of an open-label sequential-group SAD study in subjects with clinically stable HCM (Compound 1-001) is also complete; single doses of up to 144 mg were administered. In addition, a double-blind, placebo-controlled, multiple ascending-dose (MAD) study (Compound 1-003) is being conducted in which healthy adult subjects have received multiple doses of Compound 1 up to 25 mg once daily (QD) for up to 28 days.
(§2) In Study Compound 1-002, single doses from 1 mg to 48 mg were administered as an oral suspension to healthy men. […] Single doses of ≥12 mg of Compound 1 were associated with detectable reductions in LV contractility from baseline as assessed by 3 independent echocardiographic measures (left ventricular ejection fraction [LVEF], LV fractional shortening (LVFS), and LVOT velocity time integral [VTI]). At the highest dose studied in healthy subjects (48 mg), mean reduction in LVEF at any time point was −6% relative to baseline.

[1] = tested on: subjects with clinically stable HCM; experiment: Study Compound 1-001 (MYK-461-001): SAD trial in HCM patients; assay type: in vivo, human; details: for LVOT Gradient Post-dose: upon provocation
Description: as §1
In Study MYK-461-001, single doses of up to 144 mg were administered to 15 subjects with HCM. […] In terms of causality assessment, there are no nonclinical or other clinical data to implicate Compound 1 in cardiac ion channel current modulation, or cardiac impulse generation or conduction. […] Other potential contributions to the event include chronic […] with metoprolol succinate 150 mg QD, and the observation that the subject inadvertently performed the Valsalva maneuver during the handgrip strength assessment immediately prior to the event.
LVOT obstruction was resolved in patients following a single dose of Compound 1, as shown in the results in Table 2. […] Each patient was administered single 96 mg dose of Compound 1. Both patients' gradients were resolved following dosing.

healthy adult subjects = experiment: Study Compound 1-003: multiple ascending-dose (MAD) trial in healthy volunteers; assay type: in vivo, human
Description: as §1
In Study Compound 1-003, 4 cohorts of healthy adult subjects have been dosed, each scheduled to dose for 28 days. […] In cohort 3, 3 of 12 subjects who received blinded treatment (either Compound 1 12.5 mg or placebo QD) had diarrhea and/or abdominal cramps. One of these subjects was discontinued due to recurrence of diarrhea upon rechallenge, and the other 2 subjects were successfully restarted on study medication. The investigator considered these gastrointestinal AEs either mild or moderate in severity and likely related to study medication.
Dosing in cohort 4 was stopped on Day 25 by the investigator, because 5 of 12 subjects who received blinded treatment (either Compound 1 25 mg or placebo QD) achieved the predefined stopping criterion for dose ascension of ≥20% reduction in LVEF. All subjects remained asymptomatic.

smooth muscle myosin = smooth muscle myosin (Homo sapiens, UniProt P35749); experiment: Biochemical activity against smooth muscle myosin
Sequence of smooth muscle myosin (P35749 whole entry): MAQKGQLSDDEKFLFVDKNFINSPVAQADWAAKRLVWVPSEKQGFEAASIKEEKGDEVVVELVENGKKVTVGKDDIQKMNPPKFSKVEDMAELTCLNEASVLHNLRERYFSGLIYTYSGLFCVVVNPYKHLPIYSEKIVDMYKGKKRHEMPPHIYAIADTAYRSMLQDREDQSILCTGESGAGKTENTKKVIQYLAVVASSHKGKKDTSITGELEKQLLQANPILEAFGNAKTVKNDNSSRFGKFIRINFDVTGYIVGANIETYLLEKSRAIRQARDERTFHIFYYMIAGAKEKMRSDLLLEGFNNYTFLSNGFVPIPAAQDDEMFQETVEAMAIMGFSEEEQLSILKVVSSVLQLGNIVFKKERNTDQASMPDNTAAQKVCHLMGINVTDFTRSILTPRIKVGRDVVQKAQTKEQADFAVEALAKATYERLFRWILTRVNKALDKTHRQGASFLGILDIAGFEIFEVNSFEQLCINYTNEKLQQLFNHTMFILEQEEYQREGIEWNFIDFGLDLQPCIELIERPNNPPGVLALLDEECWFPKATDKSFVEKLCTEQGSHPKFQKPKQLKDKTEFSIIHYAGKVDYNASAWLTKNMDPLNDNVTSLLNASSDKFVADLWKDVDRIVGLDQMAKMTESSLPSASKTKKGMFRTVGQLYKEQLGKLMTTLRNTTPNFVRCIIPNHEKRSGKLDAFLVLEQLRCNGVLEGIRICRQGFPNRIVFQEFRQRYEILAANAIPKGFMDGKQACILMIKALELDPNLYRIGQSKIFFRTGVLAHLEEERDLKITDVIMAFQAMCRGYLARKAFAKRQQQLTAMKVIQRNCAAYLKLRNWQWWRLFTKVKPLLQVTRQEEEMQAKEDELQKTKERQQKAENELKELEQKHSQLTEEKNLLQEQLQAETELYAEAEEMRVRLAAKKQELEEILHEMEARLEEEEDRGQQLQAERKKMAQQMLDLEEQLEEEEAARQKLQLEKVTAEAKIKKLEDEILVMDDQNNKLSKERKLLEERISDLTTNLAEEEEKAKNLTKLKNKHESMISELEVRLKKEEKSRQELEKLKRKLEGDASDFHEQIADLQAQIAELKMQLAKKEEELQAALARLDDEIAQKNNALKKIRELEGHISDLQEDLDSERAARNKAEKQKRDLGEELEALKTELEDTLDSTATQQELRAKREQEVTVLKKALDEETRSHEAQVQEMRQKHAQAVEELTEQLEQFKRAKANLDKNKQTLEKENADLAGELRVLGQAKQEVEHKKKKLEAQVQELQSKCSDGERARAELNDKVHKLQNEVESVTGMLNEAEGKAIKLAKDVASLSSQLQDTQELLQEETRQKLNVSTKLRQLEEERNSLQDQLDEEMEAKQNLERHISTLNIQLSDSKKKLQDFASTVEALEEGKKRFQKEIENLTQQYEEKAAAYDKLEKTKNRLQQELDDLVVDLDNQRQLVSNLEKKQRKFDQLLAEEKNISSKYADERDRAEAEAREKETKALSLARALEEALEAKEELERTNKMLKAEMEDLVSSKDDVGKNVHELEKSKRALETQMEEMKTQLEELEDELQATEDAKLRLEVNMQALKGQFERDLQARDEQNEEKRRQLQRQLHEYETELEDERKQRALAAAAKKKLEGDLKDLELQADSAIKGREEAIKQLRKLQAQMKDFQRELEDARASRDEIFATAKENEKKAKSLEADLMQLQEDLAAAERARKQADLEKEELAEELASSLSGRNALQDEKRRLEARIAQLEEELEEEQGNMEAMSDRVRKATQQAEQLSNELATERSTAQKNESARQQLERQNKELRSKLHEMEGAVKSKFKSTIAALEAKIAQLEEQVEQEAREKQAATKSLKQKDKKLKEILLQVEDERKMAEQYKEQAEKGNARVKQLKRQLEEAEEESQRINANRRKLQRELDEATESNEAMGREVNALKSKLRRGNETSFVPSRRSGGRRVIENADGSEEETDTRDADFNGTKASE
Sequence of smooth muscle myosin (P60660 whole entry partner): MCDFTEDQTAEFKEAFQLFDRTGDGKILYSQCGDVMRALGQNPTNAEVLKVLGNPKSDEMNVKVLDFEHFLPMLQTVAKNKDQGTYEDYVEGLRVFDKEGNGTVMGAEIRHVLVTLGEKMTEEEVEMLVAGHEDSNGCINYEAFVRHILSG
Sequence of smooth muscle myosin (P24844 whole entry partner): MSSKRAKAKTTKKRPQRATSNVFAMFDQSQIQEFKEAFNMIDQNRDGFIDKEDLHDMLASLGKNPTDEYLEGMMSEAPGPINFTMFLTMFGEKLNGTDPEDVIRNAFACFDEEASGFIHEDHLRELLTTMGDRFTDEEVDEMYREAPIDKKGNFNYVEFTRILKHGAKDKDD

[2] = Pre-clinical acute or chronic administration, haemodynamics; assay type: in vivo
[3] = Pharmacokinetics in Study Compound 1-002; assay type: in vivo; details: single oral doses, healthy men
Description: as §2
Compound 1 concentrations were measured in human plasma using high pressure liquid chromatography (HPLC) coupled with tandem mass spectrometry (MS/MS). This method was used for Compound 1 bioanalysis in all clinical trials to date, and all clinical data has been collected using plasma. A brief description of the method follows.
Liquid-liquid extraction and HPLC/MS/MS was used to determine the concentration of Compound 1 in human plasma. An aliquot of the extract was injected onto an HPLC instrument that is coupled with a triple quadrupole mass spectrometer (Sciex API5500). […] The peak area of the product ion of Compound 1 was measured against the peak area of the product ion of the internal standard for determination of concentration.

healthy volunteers = experiment: Adverse events in healthy volunteers of the Phase 1 trials; assay type: in vivo, human
Description: as §1

[4] = tested on: healthy volunteers and HCM patients; experiment: Phase 1 program summary (three Phase 1 studies); assay type: in vivo, human
Description: as §1

[5] = 12.5 mg cohort, 28-day treatment
[6] = 25 mg cohort treated for 25 days

Structure (SMILES): CC(C)n1c(=O)cc(N[C@@H](C)c2ccccc2)[nH]c1=O [Compound 1, (S)-3-Isopropyl-6-((1-phenylethyl)amino) pyrimidine-2, 4(1H,3H)-dione]
- Responders % (healthy men; 12 mg single dose cohort): 50%
- Responders n (healthy men; 12 mg single dose cohort): 3/6
- Responders % (healthy men; 24 mg single dose cohort): 83%
- Responders n (healthy men; 24 mg single dose cohort): 5/6
- Responders % (healthy men; 48 mg single dose cohort): 100%
- Responders n (healthy men; 48 mg single dose cohort): 6/6
- mean reduction in LVEF at any time point relative to baseline (healthy men; 48 mg single dose, healthy subjects): −6%
- single dose associated with detectable reductions in LV contractility from baseline (healthy men; 3 echocardiographic measures (LVEF, LVFS, LVOT VTI), healthy men): ≥ 12 mg
- changes in systolic blood pressure or heart rate (healthy men; any dose level 1 mg to 48 mg): No changes in systolic blood pressure (BP) or heart rate (HR) were detected
- incidence of treatment-emergent AEs versus dose (healthy men; single doses 1 mg to 48 mg): did not appear to increase with dose
- tolerability (healthy men; single doses 1 mg to 48 mg, oral suspension, healthy men): well tolerated, with no serious adverse events (SAEs), deaths, or withdrawals from study due to adverse events (AEs) reported
- Responders % ([1]; 48 mg single dose cohort): 50%
- Responders n ([1]; 48 mg single dose cohort): 2/4
- Responders % ([1]; 96 mg single dose cohort): 83%
- Responders n ([1]; 96 mg single dose cohort): 5/6
- Responders % ([1]; 144 mg single dose cohort): 80%
- Responders n ([1]; 144 mg single dose cohort): 4/5
- LVOT gradients following Valsalva after dosing ([1]; 2 subjects, single 96 mg dose): < 10 mm Hg
- LVOT Gradient % Decrease ([1]; Patient 1, single 96 mg dose): (79%)
- LVOT Gradient Post-dose ([1]; Patient 1, single 96 mg dose, pre-dose 42): 9 mmHg
- LVOT Gradient % Decrease ([1]; Patient 2, single 96 mg dose): (82%)
- LVOT Gradient Post-dose ([1]; Patient 2, single 96 mg dose, pre-dose 28): 5 mmHg
- proof of mechanism: LV contractility ([1]; all subjects with HCM, single doses 48-144 mg): reduced LV contractility by at least 1 of 3 independent echocardiographic measures
- number of adverse events (AEs) ([1]; human, in vivo): 35
- severity of adverse events ([1]; human, in vivo): all mild to moderate
- tolerability ([1]; single doses of up to 144 mg, 15 subjects with HCM): well tolerated without deaths, withdrawals due to AEs, or dose-related treatment-emergent AEs, except for 1 of 5 subjects who received the 144 mg dose
- LVOT obstruction after a single dose ([1]; two subjects with LVOT pressure gradient, single 96 mg dose): resolved
- PD evidence of reduced contractility (healthy adult subjects; 12.5 mg QD and 25 mg QD groups): PD evidence of reduced contractility was apparent
- Responders % (healthy adult subjects; [5]): 30%
- Responders n (healthy adult subjects; [5]): 3/10
- Responders n (healthy adult subjects; 18.5 mg cohort, 28-day treatment): 10/10
- Responders % (healthy adult subjects; [6]): 100%
- Responders n (healthy adult subjects; [6]): 10/10
- Responders % (healthy adult subjects; 25 mg cohort, 28-day treatment): 100%
- subjects with diarrhea and/or abdominal cramps (healthy adult subjects; cohort 3, blinded treatment (Compound 1 12.5 mg or placebo QD)): 3 of 12
- gastrointestinal AEs (healthy adult subjects; cohort 4 (Compound 1 25 mg or placebo)): No gastrointestinal AEs were reported
- subjects achieving stopping criterion of ≥20% reduction in LVEF (healthy adult subjects; cohort 4, blinded treatment (Compound 1 25 mg or placebo QD), dosing stopped on Day 25): 5 of 12
- AE severity and SAEs (healthy adult subjects; multiple doses up to 25 mg QD): All AEs were mild or moderate in severity, and there were no SAEs
- tolerability (healthy adult subjects; multiple doses up to 25 mg QD, healthy adults): well tolerated
- activity against smooth muscle myosin (smooth muscle myosin): biochemically inactive
- myocardial contractility, LV end-diastolic dimensions, blood pressure ([2]; acute or chronic administration): decreased myocardial contractility and increased LV end-diastolic dimensions while preserving systemic arterial blood pressure and, LV end-diastolic pressure
- end-diastolic pressures and end-diastolic stiffness ([2]; versus acute effects of other negative inotropes): preserves end-diastolic pressures as well as the estimated (linear) end-diastolic stiffness despite marked increases in preload (EDV)
- half-life ([3]; male, human, plasma, read-out: mean elimination half-life (converted)): ~192 h
- pharmacokinetic (PK) profile [3]: rapid absorption and subsequent distribution followed by a long elimination phase
- SAEs (healthy volunteers): No SAEs reported
- severity of adverse events (healthy volunteers): all mild to moderate
- number of AEs reported (healthy volunteers; in 33 subjects): 54
- proof of mechanism: cardiac contractility [4]: dependent reduction in cardiac contractility
